Consider one molecule from publication PMC5387711 (Cell Discovery, 2017).

This assay deals with T1, CARF (hCARF; collaborator of ARF) (Homo sapiens, UniProt Q9NXV6).
T1 construct: gene CDKN2AIP; full length; site Cys-516 in C-terminal fragment C1
T1 sequence (Q9NXV6 2-580): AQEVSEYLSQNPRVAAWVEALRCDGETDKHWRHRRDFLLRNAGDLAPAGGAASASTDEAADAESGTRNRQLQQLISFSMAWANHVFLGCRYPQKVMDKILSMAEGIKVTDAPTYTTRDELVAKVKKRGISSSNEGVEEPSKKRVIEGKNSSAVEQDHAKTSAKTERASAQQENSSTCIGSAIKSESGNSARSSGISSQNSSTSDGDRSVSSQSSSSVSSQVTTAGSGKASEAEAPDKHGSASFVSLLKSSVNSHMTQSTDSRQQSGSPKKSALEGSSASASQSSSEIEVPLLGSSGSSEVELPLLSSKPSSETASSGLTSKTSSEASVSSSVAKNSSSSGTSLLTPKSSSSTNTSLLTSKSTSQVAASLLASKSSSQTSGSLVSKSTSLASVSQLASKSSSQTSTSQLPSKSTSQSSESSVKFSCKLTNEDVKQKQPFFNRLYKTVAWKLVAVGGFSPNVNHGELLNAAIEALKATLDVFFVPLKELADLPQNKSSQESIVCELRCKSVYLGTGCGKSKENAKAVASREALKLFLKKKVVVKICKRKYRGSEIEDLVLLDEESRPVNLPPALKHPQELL
The assay can be described thus: competition with S-614 for bead-bound His6-hCARF. Type of assay: binding. Particulars: 15 uM NC043 against 7.5 uM S-614, 1 h, 4 C; covalent (Cys-516).

`C=C1C(=O)[C@]23CC[C@H]1C[C@H]2[C@@]12CCC[C@@](C)(COC1=O)[C@H]2C[C@H]3O` [NC043]: the “competition with S-614 for bead-bound His6-hCARF” value is “S-614 directly binds to CARF, which could be competed off by NC043”.
